# Results published in patent US20230078089A1, “Regulating Activation of Fibroblasts to Prevent Fibrosis” (THE J. DAVID GLADSTONE INSTITUTES, A TESTAMENTARY TRUST …, priority 2020, published 2023).
# Tests used:
# [1] = tested on: MEOX1 expression in human fibroblasts from liver; assay: MEOX1 expression by qPCR in TGFβ-treated human liver fibroblasts; type: cell-based; settings: TGF-β1 10 ng/ml, JQ1 0.5 uM
# Method: (§1) Human fibroblasts from lung (ATCC, #CRL-4058), liver (CELL APPLICATIONS INC, #712-05f) and kidney (Cell Biologics, #H-6016) were passaged and grown like the mouse cardiac fibroblasts (see “Generation of cardiac fibroblast immortalized cell line, culture condition and TGFβ stimulation” section for more details”). In brief, human fibroblasts were seeded at 1×10^5/well of 6 well plate at day 1. On day 2, the media was changed to the same basal media with 0.5% FBS. On the day 3, TGF-β1 (Peprotech #100-21C) was added into the media at a concentration of 10 ng/ml. JQ1 was added at a final concentration of 0.5 uM. Cells were collected on day 5 for RT-qPCR and gene expression analysis.
# [2] = tested on: non-CM compartment of mouse hearts; assay: single cell RNA sequencing of non-CM heart cells from TAC mice; type: in vivo
# Method: (§2) Cell isolation from mouse hearts was performed as described by Li et al. (J. Vis. Exp. (2014)) with modifications. Briefly, after proper anesthesia level was reached, thoracotomy was performed, and mouse heart was isolated. The isolated heart was cannulated and perfused with perfusion buffer (120.4 mM NaCl, 14.7 mM KCl, 0.6 mM KH2PO4, 0.6 mM Na2HPO4, 1.2 mM MgSO4, 10 mM Na-HEPES, 4.6 mM NaHCO3, 30 mM taurine, 10 mM 2,3-butanedione monoxime, and 5.5 mM glucose, pH 7.0) in a Langendorff perfusion system (Radnoti 120108EZ) for 5-10 minutes at 37° C. The cannulated heart was then digested by digestion buffer (perfusion buffer with 300 units/mL collagenase II (Worthington Biochemical) and 50 μM CaCl2)) for about 10 min at 37° C. At the end of digestion, the atria and great vessels were removed, and the ventricular tissue was transferred to and gently teased into small pieces in stop buffer (perfusion buffer with 10% fetal bovine serum) at 37° C. After gently pipetting, cell suspension was passed through a 250 uM strainer in a falcon tube and then at 30×g for 3 minutes at room temperature (RT). Then, the supernatant—containing most of the non-cardiomyocytes (CMs)—was divided from the pellet (containing the CM fraction). The non-CM fraction was centrifuged again at 30×g for 3 minutes at RT and the supernatant kept. The supernatant was then filtered with a cell strainer (70 um) and finally centrifuged at 400×g for 3 minutes at RT for eliminating debris. The non-CM pellet was finally resuspended in 1 mL cold PBS 0.5% BSA. 30 k cells were counted with trypan blue using a hemocytometer and then used for subsequent 10× Genomics Chromium single cell RNAseq preparation. For single cell ATAC, 500 k isolated and purified non-CMs were resuspended in […] lysis buffer (Tris-HCl 10 mM pH 7.4, NaCl 10 mM, MgCl2 3 mM, Tween-20 0.1%, P40 0.1%, Digitonin 0.01%, BSA 1% in Nuclease-free water), pipetted 10 times and kept on ice for 5 minutes. Nuclei were then washed 1 mL 1× PBS with 1% BSA and then […] at 4° C. The nuclei pellet was resuspended in 1 mL 1× PBS with 1% BSA and filtered with a 10 uM strainer (pluriSelect #43-50010-00). Nuclei were then counted with DAPI using a hemocytometer and finally 30 k non-CM nuclei used for subsequent 10× Genomics Chromium single cell ATACseq preparation. The CM-fraction was, after the first centrifugation, centrifugated again at 30×g for 3 minutes at RT in stopping buffer and the supernatant was discarded. The CM pellet was finally centrifuged at 400×g for 3 minutes in stopping buffer at RT and after discarding the supernatant, the cell pellet was lysed in Qiazol (miRNeasy kit—Qiagen) for subsequent RNA extraction.
# Single-cell droplet libraries from the non-CM cell suspension (2× Sham, 2× TAC-Veh, 2× TAC-JQ1 and 2× TAC-JQ1 withdrawn) (FIG. 2C) were generated in the 10× Genomics Chromium controller according to the manufacturer's instructions in the Chromium Single Cell 3′ Reagent Kit v.2 User Guide. Additional components used for library preparation include the Chromium Single Cell 3′ Library and Gel Bead Kit v.2 (PN-120237) and the Chromium Single Cell 3′ Chip kit v.2 (PN-120236). Libraries were prepared according to the manufacturer's instructions using the Chromium Single Cell 3′ Library and Gel Bead Kit v.2(PN-120237) and Chromium 7 Multiplex Kit (PN-120262). Final libraries were sequenced on the NextSeq 500 (Illumina) for a quality control run and then on the NovaSeq (Illumina) for deeper sequencing. All the 8 samples were pooled and sequenced in one single lane. Sequencing parameters were selected according to the Chromium Single Cell v.2 specifications. All libraries were sequenced to a mean read depth of at least 50,000 total aligned reads per cell. Raw sequencing reads were processed using the Cell Ranger v.2.2.0 pipeline from 10× Genomics. […]
# Meox1 expression = Meox1 expression by qPCR in TGF-β-treated cultured cardiac fibroblasts; type: cell-based, mouse; settings: TGF-β1 10 ng/ml, JQ1 500 nM
# Method: JQ1 was synthesized and purified in the laboratory of Jun Qi (Dana-Farber Cancer Institute), as described by Filippakopoulos et al. (Nature 468, 1067-1073 (2010)). For in vivo experiments, a stock solution [50 mg/ml JQ1 in dimethyl sulfoxide (DMSO)] was diluted to a working concentration of 5 mg/ml in an aqueous carrier (10% hydroxypropyl b-cyclodextrin; Sigma C0926) using vigorous vortexing. Mice were injected at a dose of 50 mg/kg given intraperitoneally once daily. Vehicle control was an equal amount of DMSO dissolved in 10% hydroxypropyl b-cyclodextrin carrier solution. All solutions were prepared and administered using sterile technique. For in vitro experiments, JQ1 was dissolved in DMSO and administered to cells at 500 nM final concentration using an equal volume of DMSO as control.
# A Tcf21MCM mouse (Acharya et al., Genesis 49, 870-877 (2011)) was crossed with a Rosa26-Ai6 mouse (Jackson Laboratory stock #007906) to generate a Tcf21^MCM/+; Rosa26^Ai6/+ mouse. At 10 weeks of age, intraperitoneal injection of Tamoxifen (75 mg tamoxifen/kg) was done for 5 days (once a day). […] As primary cells only undergo a pre-determined and finite number of cell divisions in culture, and then enter a state of replicative senescence, the inventors employed a widely used method for immortalizing mammalian cells in culture based on Simian virus 40 (SV40) T antigen expression. […]
# Quantitative RT-PCR. […]
# [3] = tested on: several rodent models of HF; settings: background description; cited from earlier work
# isolated adult CMs = assay: bulk RNA-Seq of isolated adult cardiomyocytes from TAC mice; type: in vivo, mouse
# Method: Cell isolation from mouse hearts was performed as described by Li et al. (J. Vis. Exp. (2014)) with modifications. Briefly, after proper anesthesia level was reached, thoracotomy was performed, and mouse heart was isolated. The isolated heart was cannulated and perfused with perfusion buffer (120.4 mM NaCl, 14.7 mM KCl, 0.6 mM KH2PO4, 0.6 mM Na2HPO4, 1.2 mM MgSO4, 10 mM Na-HEPES, 4.6 mM NaHCO3, 30 mM taurine, 10 mM 2,3-butanedione monoxime, and 5.5 mM glucose, pH 7.0) in a Langendorff perfusion system (Radnoti 120108EZ) for 5-10 minutes at 37° C. The cannulated heart was then digested by digestion buffer (perfusion buffer with 300 units/mL collagenase II (Worthington Biochemical) and 50 μM CaCl2)) for about 10 min at 37° C. […] 30 k cells were counted with trypan blue using a hemocytometer and then used for subsequent 10× Genomics Chromium single cell RNAseq preparation. […] Nuclei were then counted with DAPI using a hemocytometer and finally 30 k non-CM nuclei used for subsequent 10× Genomics Chromium single cell ATACseq preparation. […]
# Total RNA from CMs was extracted using miRNeasy kit (Qiagen) according to the manufacturer's instructions and quantified with Nanodrop (Thermo scientific). […] Reads were mapped to the mm10 reference mouse genome using STAR (v 2.7.3a) and assigned to Ensembl genes. […]
# [4] = tested on: MEOX1 expression in human fibroblasts from lung; assay: MEOX1 expression by qPCR in TGFβ-treated human lung fibroblasts; type: cell-based; settings: TGF-β1 10 ng/ml, JQ1 0.5 uM
# Method: as §1
# [5] = tested on: distal elements (incl. Meox1 enhancer) in fibroblasts, myeloid and endothelial cells; assay: single cell ATAC sequencing of non-CM heart nuclei from TAC mice, chromatin accessibility of distal elements; type: in vivo, mouse
# Method: as §2
# After successful nuclei isolation, nuclei were then processed according to the 10× Genomics Single Cell ATAC kit v1.0 (PN-1000110) by first incubating with Tn5 Transposase for 1 hour, followed by GEM generation and barcode amplification using the 10× Genomics Chromium controller according to the manufacturer's instructions. Additional components used for library preparation include the Chromium Chip E Single Cell ATAC kit (PN-1000082) and Chromium i7 Multiplex Kit N, Set A primers (PN-1000084). Final libraries were sequenced on the NextSeq 500 (Illumina) for a quality control run and then on the NovaSeq (Illumina) for deeper sequencing. All the 8 samples (2× Sham, 2× TAC-Veh, 2× TAC-JQ1 and 2× TAC-JQ1 withdrawn) (FIG. 2C) were pooled and sequenced in one NovaSeq single lane. Sequencing parameters were selected according to the Chromium Single Cell ATAC v1.0 specifications. All libraries were sequenced to a median read depth of at least 2,500 fragments/nuclei. Raw sequencing reads were processed using the Cell Ranger ATAC v1.0 pipeline from 10× Genomics. In brief, reads were demultiplexed and aligned to the mouse mm10 genome. As a test of sample quality, a minimum of 70% of fragments overlapped targeted regions as defined by CellRanger. […]
# [6] = tested on: MEOX1 expression in human fibroblasts from kidney; assay: MEOX1 expression by qPCR in TGFβ-treated human kidney fibroblasts; type: cell-based; settings: TGF-β1 10 ng/ml, JQ1 0.5 uM
# Method: as §1
# [7] = tested on: BET family of bromodomain proteins; settings: background description; cited from earlier work
compound,measurement,setting,value
Cc1sc2c(c1C)C(c1ccc(Cl)cc1)=NC(CC(=O)OC(C)(C)C)c1nnc(C)n1-2 (centres unmarked) [JQ1],TGFβ-induced MEOX1 expression,[1],suppressed
same,fibroblast cell state (scRNAseq clustering),[2]; TAC JQ1-treated,dramatic reversion of this cell state to one that closely approached the Sham state
same,myofibroblast cell state (Postn marker),[2]; TAC JQ1-treated,shifted the myoFB cell state back toward a Sham-like state
same,Meox1 expression in MyoFBs (scRNAseq) after withdrawal,[2]; TAC JQ1 withdrawn,robust re-induction
same,fibroblast cell state (scRNAseq clustering) after withdrawal,[2]; TAC JQ1 withdrawn,shift of the FB population back to a TAC-like stressed state
same,myofibroblast cell state (Postn marker) after withdrawal,[2]; TAC JQ1 withdrawn,reverts these cells back to myoFBs
same,Meox1 expression in MyoFBs (scRNAseq),"[2]; TAC, BET inhibition with JQ1",abolished
same,transcriptome of endothelial and myeloid compartments,"[2]; TAC, JQ1 exposure",dynamic transcriptomic shifts
same,TGF-β-induced Meox1 upregulation,Meox1 expression,suppressed
same,prevention and treatment of heart failure,[3],can prevent and treat HF
same,overlap of CM transcriptome effects with transcriptomic signature of whole LV tissue,isolated adult CMs,< 3%
same,effects on the transcriptome of isolated adult CMs,isolated adult CMs; compared to published signature of whole LV tissue,modest
same,TGFβ-induced MEOX1 expression,[4],suppressed
same,accessibility of fibroblast regions that opened from Sham to TAC (Cluster 9),[5]; fibroblasts,insensitive
same,sensitivity of the enhancer downstream of Meox1 to stress and JQ1 exposure,"[5]; fibroblasts, but not myeloid and endothelial cells",extremely sensitive
same,accessibility of the 10 peaks of the Meox1 enhancer,"[5]; fibroblasts, JQ1 treatment",closed with JQ1 treatment back to a Sham level
same,increase in chromatin accessibility after TAC in fibroblasts,"[5]; fibroblasts, JQ1 treatment",reversibly attenuated
same,accessibility of dynamic fibroblast distal elements (Cluster 2) after withdrawal,"[5]; fibroblasts, JQ1 withdrawal",robustly re-accessible
same,accessibility of the 10 peaks of the Meox1 enhancer after withdrawal,"[5]; fibroblasts, JQ1 withdrawn",re-opened
same,accessibility of dynamic fibroblast distal elements (Cluster 2),"[5]; fibroblasts, closed in Sham, opened in TAC, JQ1 treatment",closed by JQ1
same,attenuation of chromatin accessibility after TAC in myeloid and endothelial cells,"[5]; myeloid and endothelial cells, JQ1 treatment",less evident
same,TGFβ-induced MEOX1 expression,[6],suppressed
same,potency as BET bromodomain inhibitor,[7],potent inhibitor
